# Test results published in publication PMC9067983, “Identification of highly selective type II kinase inhibitors with chiral peptidomimetic tails” (Journal of Enzyme Inhibition and Medicinal Chemistry, 2022).
# Where a SMILES comes first, the peptide text is derived from it. [ ]: non-standard residue; d: D form. The star is where a group is joined. X1 = Cc1ccc(Nc2ncc3c(n2)N(C)C(=O)N(c2cc(C(=O)*)ccc2C)C3)cn1; Aib = CC(C)(N)C(=O)O
# What was measured:
# Assay in all cases: kinase selectivity profiling
# Assay type in all cases: biochemical
# Settings in all cases: 10µM ATP, read-out: % inhibition (relative to DMSO)
# CLK2 = target: T1, CLK2 (Homo sapiens, UniProt P49760)
# T1 construct: purchased Reaction Biology Corp
# Experimental: (§1) Full panel kinase profiling and kinase IC50 measurement were performed by using Reaction Biology Corp. (San Diego, USA).
# HIPK1 = target: T2, HIPK1 (Homo sapiens, UniProt Q86Z02)
# T2 construct: purchased Reaction Biology Corp
# T2 sequence (Q86Z02 whole entry): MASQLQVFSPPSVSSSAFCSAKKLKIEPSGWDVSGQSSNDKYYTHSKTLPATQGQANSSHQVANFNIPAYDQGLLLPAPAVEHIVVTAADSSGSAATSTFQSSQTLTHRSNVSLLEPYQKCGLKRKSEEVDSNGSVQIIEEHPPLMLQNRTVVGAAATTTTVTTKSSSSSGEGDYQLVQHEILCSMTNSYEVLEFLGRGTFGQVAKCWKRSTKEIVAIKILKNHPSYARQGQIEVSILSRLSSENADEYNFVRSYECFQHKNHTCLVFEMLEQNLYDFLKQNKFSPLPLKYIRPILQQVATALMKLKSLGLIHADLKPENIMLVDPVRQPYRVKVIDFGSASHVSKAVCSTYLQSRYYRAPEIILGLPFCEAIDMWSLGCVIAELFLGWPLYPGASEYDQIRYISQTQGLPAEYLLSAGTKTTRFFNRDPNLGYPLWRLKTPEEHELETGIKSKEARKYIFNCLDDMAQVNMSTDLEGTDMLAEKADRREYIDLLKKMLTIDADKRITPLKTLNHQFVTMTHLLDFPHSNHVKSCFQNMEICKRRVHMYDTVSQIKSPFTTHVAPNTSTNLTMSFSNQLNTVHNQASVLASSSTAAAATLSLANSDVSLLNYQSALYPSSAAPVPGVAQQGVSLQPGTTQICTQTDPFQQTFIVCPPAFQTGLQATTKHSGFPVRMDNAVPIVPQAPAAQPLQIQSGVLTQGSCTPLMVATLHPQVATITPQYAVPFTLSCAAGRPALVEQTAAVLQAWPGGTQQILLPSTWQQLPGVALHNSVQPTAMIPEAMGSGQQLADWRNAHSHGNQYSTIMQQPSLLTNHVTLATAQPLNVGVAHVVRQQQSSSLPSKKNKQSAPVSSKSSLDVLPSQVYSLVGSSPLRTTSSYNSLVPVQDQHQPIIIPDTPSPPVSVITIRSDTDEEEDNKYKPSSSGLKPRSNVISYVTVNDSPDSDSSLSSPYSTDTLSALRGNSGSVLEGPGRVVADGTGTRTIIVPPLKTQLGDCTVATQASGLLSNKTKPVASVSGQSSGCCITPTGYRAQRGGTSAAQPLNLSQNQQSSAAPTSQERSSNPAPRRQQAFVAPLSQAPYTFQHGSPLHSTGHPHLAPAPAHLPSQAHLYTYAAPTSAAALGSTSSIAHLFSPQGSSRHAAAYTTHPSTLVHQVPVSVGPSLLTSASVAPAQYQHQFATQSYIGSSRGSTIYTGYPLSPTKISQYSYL
# Experimental: as §1
# KDR/VEGFR2 = target: T3, KDR/VEGFR2 (Homo sapiens, UniProt P35968)
# T3 construct: purchased Reaction Biology Corp
# T3 sequence (P35968 20-1356): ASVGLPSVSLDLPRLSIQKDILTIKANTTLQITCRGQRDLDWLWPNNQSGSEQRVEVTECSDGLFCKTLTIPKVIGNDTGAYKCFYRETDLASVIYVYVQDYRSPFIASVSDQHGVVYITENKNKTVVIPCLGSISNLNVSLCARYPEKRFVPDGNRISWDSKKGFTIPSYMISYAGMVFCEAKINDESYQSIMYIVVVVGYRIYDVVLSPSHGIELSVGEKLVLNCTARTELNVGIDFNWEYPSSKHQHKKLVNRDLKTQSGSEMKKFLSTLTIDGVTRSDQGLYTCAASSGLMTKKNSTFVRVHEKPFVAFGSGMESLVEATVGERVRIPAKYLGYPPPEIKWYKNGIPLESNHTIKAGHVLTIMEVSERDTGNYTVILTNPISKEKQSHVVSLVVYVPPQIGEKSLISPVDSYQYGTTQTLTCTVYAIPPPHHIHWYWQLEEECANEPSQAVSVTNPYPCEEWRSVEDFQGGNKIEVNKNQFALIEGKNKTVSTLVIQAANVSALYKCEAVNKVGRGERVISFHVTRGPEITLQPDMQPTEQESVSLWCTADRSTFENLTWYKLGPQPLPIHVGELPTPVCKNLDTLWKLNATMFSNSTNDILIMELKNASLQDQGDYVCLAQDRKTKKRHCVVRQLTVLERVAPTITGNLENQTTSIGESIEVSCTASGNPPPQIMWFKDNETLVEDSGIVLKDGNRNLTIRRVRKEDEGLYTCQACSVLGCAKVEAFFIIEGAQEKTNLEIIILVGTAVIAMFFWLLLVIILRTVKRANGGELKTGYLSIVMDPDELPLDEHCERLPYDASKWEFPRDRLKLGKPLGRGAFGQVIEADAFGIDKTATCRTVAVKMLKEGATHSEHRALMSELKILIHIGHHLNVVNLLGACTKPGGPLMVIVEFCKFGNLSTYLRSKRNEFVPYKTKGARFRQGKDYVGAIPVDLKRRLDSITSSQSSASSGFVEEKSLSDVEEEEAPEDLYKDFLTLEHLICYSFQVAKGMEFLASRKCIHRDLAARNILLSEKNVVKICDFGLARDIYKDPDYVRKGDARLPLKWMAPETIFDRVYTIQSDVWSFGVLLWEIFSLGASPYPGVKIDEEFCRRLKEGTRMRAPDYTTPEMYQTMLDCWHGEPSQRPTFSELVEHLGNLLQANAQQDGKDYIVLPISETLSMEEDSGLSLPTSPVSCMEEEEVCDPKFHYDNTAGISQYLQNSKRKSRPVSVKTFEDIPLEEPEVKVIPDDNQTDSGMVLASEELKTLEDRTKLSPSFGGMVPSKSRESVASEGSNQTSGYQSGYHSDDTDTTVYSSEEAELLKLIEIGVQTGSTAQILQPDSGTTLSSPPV
# Experimental: as §1
# CK1a1L = target: T4, CK1a1L (Homo sapiens, UniProt Q8N752)
# T4 construct: purchased Reaction Biology Corp
# Experimental: as §1
# WEE1 = target: T5, WEE1 (Homo sapiens, UniProt P30291)
# T5 construct: purchased Reaction Biology Corp
# Experimental: as §1
# FGFR3 = target: T6, FGFR3 (Homo sapiens, UniProt P22607)
# T6 construct: purchased Reaction Biology Corp
# Experimental: as §1
# CK1g2 = target: T7, CK1g2 (Homo sapiens, UniProt P78368)
# T7 construct: purchased Reaction Biology Corp
# Experimental: as §1
# HIPK2 = target: T8, HIPK2 (Homo sapiens, UniProt Q9H2X6)
# T8 construct: purchased Reaction Biology Corp
# Experimental: as §1
# CDK4/cyclin D3 = target: T9, CDK4/cyclin D3 (Homo sapiens, UniProt P11802)
# T9 construct: purchased Reaction Biology Corp
# Experimental: as §1
# MLK4 = target: T10, MLK4 (Homo sapiens, UniProt Q5TCX8)
# T10 construct: purchased Reaction Biology Corp
# Experimental: as §1
# MEKK3 = target: T11, MEKK3 (Homo sapiens, UniProt Q99759)
# T11 construct: purchased Reaction Biology Corp
# T11 sequence (Q99759 whole entry): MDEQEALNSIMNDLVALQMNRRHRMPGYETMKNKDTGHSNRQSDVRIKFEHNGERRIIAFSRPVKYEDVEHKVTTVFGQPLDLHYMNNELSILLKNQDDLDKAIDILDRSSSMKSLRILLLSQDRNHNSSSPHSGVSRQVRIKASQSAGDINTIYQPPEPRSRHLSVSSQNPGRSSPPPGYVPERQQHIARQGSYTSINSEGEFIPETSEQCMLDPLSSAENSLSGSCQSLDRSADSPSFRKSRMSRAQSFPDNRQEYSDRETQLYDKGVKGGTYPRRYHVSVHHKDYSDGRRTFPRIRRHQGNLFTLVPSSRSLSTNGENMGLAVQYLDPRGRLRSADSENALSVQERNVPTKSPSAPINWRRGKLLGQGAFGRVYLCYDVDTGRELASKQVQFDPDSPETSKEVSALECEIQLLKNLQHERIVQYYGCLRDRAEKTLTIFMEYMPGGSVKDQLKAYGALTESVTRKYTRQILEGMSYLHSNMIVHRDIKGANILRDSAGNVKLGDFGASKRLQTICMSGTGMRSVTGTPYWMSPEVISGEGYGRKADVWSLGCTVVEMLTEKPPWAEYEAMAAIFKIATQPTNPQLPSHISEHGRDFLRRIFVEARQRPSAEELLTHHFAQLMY
# Experimental: as §1
# PDK1/PDPK1 = target: T12, PDK1/PDPK1 (Homo sapiens, UniProt O15530)
# T12 construct: purchased Reaction Biology Corp
# Experimental: as §1
# DDR2 = target: T13, DDR2 (Homo sapiens, UniProt Q16832)
# T13 construct: purchased Reaction Biology Corp
# Experimental: as §1
# PKD2/PRKD2 = target: T14, PKD2/PRKD2 (Homo sapiens, UniProt Q9BZL6)
# T14 construct: purchased Reaction Biology Corp
# Experimental: as §1
# CK1epsilon = target: T15, CK1epsilon (Homo sapiens, UniProt P49674)
# T15 construct: purchased Reaction Biology Corp
# Experimental: as §1
# BRAF = target: T16, BRAF (Homo sapiens, UniProt P15056)
# T16 construct: purchased Reaction Biology Corp
# Experimental: as §1
# PIM3 = target: T17, PIM3 (Homo sapiens, UniProt Q86V86)
# T17 construct: purchased Reaction Biology Corp
# Experimental: as §1
# PYK2 = target: T18, PYK2 (Homo sapiens, UniProt Q14289)
# T18 construct: purchased Reaction Biology Corp
# Experimental: as §1
# CK1g1 = target: T19, CK1g1 (Homo sapiens, UniProt Q9HCP0)
# T19 construct: purchased Reaction Biology Corp
# T19 sequence (Q9HCP0 whole entry): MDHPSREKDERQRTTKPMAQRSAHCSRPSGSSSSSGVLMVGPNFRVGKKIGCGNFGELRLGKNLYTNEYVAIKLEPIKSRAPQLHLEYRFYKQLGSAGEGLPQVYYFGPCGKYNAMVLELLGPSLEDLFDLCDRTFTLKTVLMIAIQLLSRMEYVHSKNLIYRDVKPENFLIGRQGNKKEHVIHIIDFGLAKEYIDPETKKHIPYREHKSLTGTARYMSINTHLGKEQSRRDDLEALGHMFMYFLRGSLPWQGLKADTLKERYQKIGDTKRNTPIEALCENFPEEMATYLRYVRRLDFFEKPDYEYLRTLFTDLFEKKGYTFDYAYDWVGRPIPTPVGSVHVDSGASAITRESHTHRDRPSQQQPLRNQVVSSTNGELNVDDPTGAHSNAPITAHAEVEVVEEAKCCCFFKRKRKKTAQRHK
# Experimental: as §1
# MEK2 = target: T20, MEK2 (Homo sapiens, UniProt P36507)
# T20 construct: purchased Reaction Biology Corp
# Experimental: as §1
# SBK1 = target: T21, SBK1 (Homo sapiens, UniProt Q52WX2)
# T21 construct: purchased Reaction Biology Corp
# Experimental: as §1
# DYRK2 = target: T22, DYRK2 (Homo sapiens, UniProt Q92630)
# T22 construct: purchased Reaction Biology Corp
# T22 sequence (Q92630 whole entry): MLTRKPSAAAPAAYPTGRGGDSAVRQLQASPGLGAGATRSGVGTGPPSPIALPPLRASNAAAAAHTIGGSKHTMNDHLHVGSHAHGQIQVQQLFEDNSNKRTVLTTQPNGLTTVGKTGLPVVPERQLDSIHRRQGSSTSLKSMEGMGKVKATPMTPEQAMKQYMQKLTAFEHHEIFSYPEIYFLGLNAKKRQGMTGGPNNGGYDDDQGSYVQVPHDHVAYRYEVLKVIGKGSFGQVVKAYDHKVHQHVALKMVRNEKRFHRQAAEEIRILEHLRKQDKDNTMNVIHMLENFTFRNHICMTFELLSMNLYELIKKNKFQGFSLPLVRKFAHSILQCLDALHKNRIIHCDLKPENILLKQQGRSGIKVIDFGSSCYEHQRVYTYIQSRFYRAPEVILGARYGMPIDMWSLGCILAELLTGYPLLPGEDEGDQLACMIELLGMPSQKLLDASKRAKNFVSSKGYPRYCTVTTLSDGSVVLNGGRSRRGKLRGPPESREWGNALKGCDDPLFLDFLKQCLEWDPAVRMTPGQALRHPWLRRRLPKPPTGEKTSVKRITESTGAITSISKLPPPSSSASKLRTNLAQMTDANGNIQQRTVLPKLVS
# Experimental: as §1
# BMPR2 = target: T23, BMPR2 (Homo sapiens, UniProt Q13873)
# T23 construct: purchased Reaction Biology Corp
# Experimental: as §1
# SNRK = target: T24, SNRK (Homo sapiens, UniProt Q9NRH2)
# T24 construct: purchased Reaction Biology Corp
# Experimental: as §1
# CDK16/cyclin Y (PCTAIRE) = target: T25, CDK16/cyclin Y (PCTAIRE) (Homo sapiens, UniProt Q00536)
# T25 construct: purchased Reaction Biology Corp
# Experimental: as §1
# DAPK1 = target: T26, DAPK1 (Homo sapiens, UniProt P53355)
# T26 construct: purchased Reaction Biology Corp
# Experimental: as §1
# RSK3 = target: T27, RSK3 (Homo sapiens, UniProt Q15349)
# T27 construct: purchased Reaction Biology Corp
# Experimental: as §1
# MAPKAPK5/PRAK = target: T28, MAPKAPK5/PRAK (Homo sapiens, UniProt Q8IW41)
# T28 construct: purchased Reaction Biology Corp
# Experimental: as §1
# AKT1 = target: T29, AKT1 (Homo sapiens, UniProt P31749)
# T29 construct: purchased Reaction Biology Corp
# Experimental: as §1
# TGFBR2 = target: T30, TGFBR2 (Homo sapiens, UniProt P37173)
# T30 construct: purchased Reaction Biology Corp
# T30 sequence (P37173 23-567): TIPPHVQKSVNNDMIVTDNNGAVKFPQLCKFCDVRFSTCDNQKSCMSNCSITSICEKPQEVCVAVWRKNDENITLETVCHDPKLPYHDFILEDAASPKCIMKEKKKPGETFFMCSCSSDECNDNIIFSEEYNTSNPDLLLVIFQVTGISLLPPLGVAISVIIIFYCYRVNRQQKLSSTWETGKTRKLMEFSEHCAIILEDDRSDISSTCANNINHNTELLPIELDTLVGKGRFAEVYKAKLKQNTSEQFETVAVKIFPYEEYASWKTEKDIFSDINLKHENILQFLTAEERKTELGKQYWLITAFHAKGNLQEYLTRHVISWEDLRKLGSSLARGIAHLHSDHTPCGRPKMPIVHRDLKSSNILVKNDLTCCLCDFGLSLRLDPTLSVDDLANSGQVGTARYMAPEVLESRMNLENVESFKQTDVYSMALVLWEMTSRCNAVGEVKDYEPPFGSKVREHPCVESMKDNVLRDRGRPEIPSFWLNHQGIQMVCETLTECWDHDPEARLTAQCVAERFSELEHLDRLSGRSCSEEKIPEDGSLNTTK
# Experimental: as §1
# PKN2/PRK2 = target: T31, PKN2/PRK2 (Homo sapiens, UniProt Q16513)
# T31 construct: purchased Reaction Biology Corp
# Experimental: as §1
# HCK = target: T32, HCK (Homo sapiens, UniProt P08631)
# T32 construct: purchased Reaction Biology Corp
# Experimental: as §1
# MLCK2/MYLK2 = target: T33, MLCK2/MYLK2 (Homo sapiens, UniProt Q9H1R3)
# T33 construct: purchased Reaction Biology Corp
# Experimental: as §1
# DAPK2 = target: T34, DAPK2 (Homo sapiens, UniProt Q9UIK4)
# T34 construct: purchased Reaction Biology Corp
# Experimental: as §1
# c-Src = target: T35, c-Src (Homo sapiens, UniProt P12931)
# T35 construct: purchased Reaction Biology Corp
# Experimental: as §1
# EPHA2 = target: T36, EPHA2 (Homo sapiens, UniProt P29317)
# T36 construct: purchased Reaction Biology Corp
# Experimental: as §1
# CDK1/cyclin E = target: T37, CDK1/cyclin E (Homo sapiens, UniProt P06493)
# T37 construct: purchased Reaction Biology Corp
# Experimental: as §1
# TIE2/TEK = target: T38, TIE2/TEK (Homo sapiens, UniProt Q02763)
# T38 construct: purchased Reaction Biology Corp
# Experimental: as §1
# ALK3/BMPR1A = target: T39, ALK3/BMPR1A (Homo sapiens, UniProt P36894)
# T39 construct: purchased Reaction Biology Corp
# Experimental: as §1
# SGK2 = target: T40, SGK2 (Homo sapiens, UniProt Q9HBY8)
# T40 construct: purchased Reaction Biology Corp
# Experimental: as §1
# CLK3 = target: T41, CLK3 (Homo sapiens, UniProt P49761)
# T41 construct: purchased Reaction Biology Corp
# Experimental: as §1
# STK38L/NDR2 = target: T42, STK38L/NDR2 (Homo sapiens, UniProt Q9Y2H1)
# T42 construct: purchased Reaction Biology Corp
# Experimental: as §1
# PAK1 = target: T43, PAK1 (Homo sapiens, UniProt Q13153)
# T43 construct: purchased Reaction Biology Corp
# Experimental: as §1
smiles,measurement,setting,value
"Cc1ccc(Nc2ncc3c(n2)N(C)C(=O)N(c2cc(C(=O)N[C@H](C(=O)N4CCC[C@H]4C(=O)NC(C)(C)C(=O)N[C@@H](CC(C)C)C(=O)N(C)C)C(C)C)ccc2C)C3)cn1 [7a, (S)-N-(1-(((S)-1-(dimethylamino)-4-methyl-1-oxopentan-2-yl)amino)-2-methyl-1-oxopropan-2-yl)-1-((4-methyl-3-(1-methyl-7-((6-methylpyridin-3-yl)amino)-2-oxo-1,4-dihydropyrimido[4,5-d]pyrimidin-3(2H)-yl)benzoyl)-L-valyl)pyrrolidine-2-carboxamide] (X1-VP[Aib]L-NMe2)",inhibition at 1 µM,CLK2,0%
same,inhibition at 1 µM,HIPK1,0%
same,inhibition at 1 µM,KDR/VEGFR2,12%
same,inhibition at 1 µM,CK1a1L,0%
same,inhibition at 1 µM,WEE1,0%
same,inhibition at 1 µM,FGFR3,0%
same,inhibition at 1 µM,CK1g2,2%
same,inhibition at 1 µM,HIPK2,0%
same,inhibition at 1 µM,CDK4/cyclin D3,3%
same,inhibition at 1 µM,MLK4,7%
same,inhibition at 1 µM,MEKK3,11%
same,inhibition at 1 µM,PDK1/PDPK1,1%
same,inhibition at 1 µM,DDR2,58%
same,inhibition at 1 µM,PKD2/PRKD2,0%
same,inhibition at 1 µM,CK1epsilon,0%
same,inhibition at 1 µM,BRAF,7%
same,inhibition at 1 µM,PIM3,0%
same,inhibition at 1 µM,PYK2,8%
same,inhibition at 1 µM,CK1g1,0%
same,inhibition at 1 µM,MEK2,11%
same,inhibition at 1 µM,SBK1,0%
same,inhibition at 1 µM,DYRK2,8%
same,inhibition at 1 µM,BMPR2,10%
same,inhibition at 1 µM,SNRK,9%
same,inhibition at 1 µM,CDK16/cyclin Y (PCTAIRE),6%
same,inhibition at 1 µM,DAPK1,0%
same,inhibition at 1 µM,RSK3,0%
same,inhibition at 1 µM,MAPKAPK5/PRAK,8%
same,inhibition at 1 µM,AKT1,8%
same,inhibition at 1 µM,TGFBR2,0%
same,inhibition at 1 µM,PKN2/PRK2,0%
same,inhibition at 1 µM,HCK,38%
same,inhibition at 1 µM,MLCK2/MYLK2,0%
same,inhibition at 1 µM,DAPK2,1%
same,inhibition at 1 µM,c-Src,64%
same,inhibition at 1 µM,EPHA2,21%
same,inhibition at 1 µM,CDK1/cyclin E,0%
same,inhibition at 1 µM,TIE2/TEK,0%
same,inhibition at 1 µM,ALK3/BMPR1A,3%
same,inhibition at 1 µM,SGK2,0%
same,inhibition at 1 µM,CLK3,17%
same,inhibition at 1 µM,STK38L/NDR2,4%
same,inhibition at 1 µM,PAK1,5%
